Columns and labels:
Details in all cases: Neutrophil
[1] = (§1) Antiinflammatory activity in human neutrophils assessed as inhibition of fMLP/CB-induced superoxide anion generation by measuring superoxide dismutase-inhibitable reduction of ferricytochrome c preincubated for 5 mins followed by fMLP/CB-induction measured after 10 mins by spectrophotometric analysis; assay type: functional, cell-based
[2] = Antiinflammatory activity in human neutrophils assessed as inhibition of fMLP/CB-induced elastase release using MeO-Suc-Ala-Ala-Pro-Val-p-nitroanilide as elastase substrate preincubated for 5 mins followed by fMLP/CB-induction by spectroscopic analysis; assay type: functional, cell-based
[3] = as §1, with “ferricytochrome c at 10 uM preincubated for” for “ferricytochrome c preincubated for”; assay type: functional
[4] = Antiinflammatory activity in human neutrophils assessed as inhibition of fMLP/CB-induced elastase release using MeO-Suc-Ala-Ala-Pro-Val-p-nitroanilide as elastase substrate at 10 uM preincubated for 5 mins followed by fMLP/CB-induction by spectroscopic analysis; assay type: functional

Row | IC50 [1] | IC50 [2] | Structure (SMILES) | inhibition at 10 µM [3] [%] | inhibition at 10 µM [4] [%]
1 | 0.6 µg/mL | 1.2 µg/mL | O=c1cc(N2CCOCC2)oc2c(-c3ccccc3)cccc12 [LY-294002] | – | –
2 | 4.1 µM | 3.7 µM | COC(=O)C(C)CCC[C@]1(C)CC[C@]2(O1)C(=O)C(C)=C(C)[C@@]2(O)C(C)=O (stereo not given in full) | 78.3 | 89.5
3 | > 10 µM | > 10 µM | COC(=O)C(C)CCCC(C)(O)CCC1=C(C)C(=O)C2(C)OC2(C)C1=O (stereo not given) | 8.5 | 21.2

From ChEMBL document CHEMBL3576827, “New anti-inflammatory tocopherol-derived metabolites from the Taiwanese soft coral Cladiella hirsuta” (Bioorg Med Chem Lett, 2015)
